Assay results: patent US20240024273A1, “TOPICAL ADMINISTRATION OF 2-(DIETHYLAMINO)ETHYL 2-(4-ISOBUTYLPHENYL)PROPRIONATE FOR TREATMENT OF DISEASES” (TECHFIELDS PHARMA CO., LTD., priority 2020, published 2024)

System: Mild to Moderate Osteoarthritis of the Knee
Experiment: Phase 2 study: subject's and physician's global assessment of response to therapy
Assay type: in vivo, human
Text: 3.9.3. Exploratory Efficacy Endpoints: • 1. Subject's global assessment of disease status of the target knee at 2, 4, 8, and 12 weeks of treatment; • 2. Investigator's global assessment of disease status of the target knee at 2, 4, 8, and 12 weeks of treatment; • 3. Subject's global assessment of response to therapy of the target knee at 2, 4, 8, and 12 weeks of treatment; • 4. Investigator's global assessment of response to therapy of the target knee at 2, 4, 8, and 12 weeks of treatment; • 5. Change from Baseline over time in VAS pain scores for the target knee from Daily Diary data; • 6. Amount of rescue medication (acetaminophen) consumed per day for target knee pain.
Data for the exploratory efficacy endpoints will be summarized using descriptive statistics.

CCN(CC)CCOC(=O)C(C)c1ccc(CC(C)C)cc1 (stereo not drawn) [2-(diethylamino)ethyl 2-(4-isobutylphenyl)propionate]
Physician's global assessment of response to therapy: Excellent (8.75 mg/knee (BID)): 11.1%
Physician's global assessment of response to therapy: fair (8.75 mg/knee (BID)): 36.5%
Physician's global assessment of response to therapy: good (8.75 mg/knee (BID)): 38.1%
Physician's global assessment of response to therapy: none (8.75 mg/knee (BID)): 7.9%
Physician's global assessment of response to therapy: poor (8.75 mg/knee (BID)): 6.3%
Physician's global assessment of response to therapy: total percentage of excellent and good (8.75 mg/knee (BID)): 49.2%
Subject's global assessment of response to therapy: Excellent (8.75 mg/knee (BID)): 7.8%
Subject's global assessment of response to therapy: fair (8.75 mg/knee (BID)): 29.7%
Subject's global assessment of response to therapy: good (8.75 mg/knee (BID)): 43.8%
Subject's global assessment of response to therapy: none (8.75 mg/knee (BID)): 9.4%
Subject's global assessment of response to therapy: poor (8.75 mg/knee (BID)): 9.4%
Subject's global assessment of response to therapy: total percentage of excellent and good (8.75 mg/knee (BID)): 51.6%
Physician's global assessment of response to therapy: Excellent (17.5 mg/knee (BID)): 23.2%
Physician's global assessment of response to therapy: fair (17.5 mg/knee (BID)): 18.8%
Physician's global assessment of response to therapy: good (17.5 mg/knee (BID)): 43.5%
Physician's global assessment of response to therapy: none (17.5 mg/knee (BID)): 5.8%
Physician's global assessment of response to therapy: poor (17.5 mg/knee (BID)): 8.7%
Physician's global assessment of response to therapy: total percentage of excellent and good (17.5 mg/knee (BID)): 66.7%
Subject's global assessment of response to therapy: Excellent (17.5 mg/knee (BID)): 20.3%
Subject's global assessment of response to therapy: fair (17.5 mg/knee (BID)): 17.2%
Subject's global assessment of response to therapy: good (17.5 mg/knee (BID)): 50.0%
Subject's global assessment of response to therapy: none (17.5 mg/knee (BID)): 7.8%
Subject's global assessment of response to therapy: poor (17.5 mg/knee (BID)): 4.7%
Subject's global assessment of response to therapy: total percentage of excellent and good (17.5 mg/knee (BID)): 70.3%
Physician's global assessment of response to therapy: Excellent (35 mg/knee (BID)): 18.8%
Physician's global assessment of response to therapy: fair (35 mg/knee (BID)): 17.2%
Physician's global assessment of response to therapy: good (35 mg/knee (BID)): 42.2%
Physician's global assessment of response to therapy: none (35 mg/knee (BID)): 7.8%
Physician's global assessment of response to therapy: poor (35 mg/knee (BID)): 14.1%
Physician's global assessment of response to therapy: total percentage of excellent and good (35 mg/knee (BID)): 60.9%
Subject's global assessment of response to therapy: Excellent (35 mg/knee (BID)): 18.0%
Subject's global assessment of response to therapy: fair (35 mg/knee (BID)): 18.3%
Subject's global assessment of response to therapy: good (35 mg/knee (BID)): 49.2%
Subject's global assessment of response to therapy: none (35 mg/knee (BID)): 9.8%
Subject's global assessment of response to therapy: poor (35 mg/knee (BID)): 4.9%
Subject's global assessment of response to therapy: total percentage of excellent and good (35 mg/knee (BID)): 67.2%
